Literature values in patent publication US6576227B1, “Peroxidase-activating oral compositions” (Oraceutical Innovative Properties, LLC, priority 1995, dated 2003).

Legend:
[1] = 20° C.
[2] = test system: cellular DNA; conditions: elevated concentrations (greater than about 0.1 percent or about 29 millimoles per liter)

Compound: NC(N)=O.OO [Carbamide peroxide]
- water solubility [1]: 800 grams per liter
- concentration of saturated solution ([1]; water): 44.4%
- pH upon dissolution, 1% solution (1% solution in water): approximately 4.05
- pH, saturated solution (saturated solution in water): approximately 3.40

Compound: OO [hydrogen peroxide]
- mutagenicity and cellular DNA damage [2]: mutagenic
